In ChEMBL document CHEMBL4507264, “Data for DCP probe BAY-7598” (2021):

Columns and labels:
[1] = tested on: Tyrosine-protein kinase ABL1 (Homo sapiens), P00519 [H396P]; details: Compound concentration 1000.0 nM
[2] = tested on: Tyrosine-protein kinase ABL1 (Homo sapiens), P00519 [T315I]; details: Compound concentration 1000.0 nM
[3] = target: Tyrosine-protein kinase ABL2 (Homo sapiens) (UniProt P42684); details: Compound concentration 1000.0 nM
[4] = target: Activin receptor type-1B (Homo sapiens) (UniProt P36896); details: Compound concentration 1000.0 nM
[5] = target: BMP-2-inducible protein kinase (Homo sapiens) (UniProt Q9NSY1); details: Compound concentration 1000.0 nM
[6] = target: Bone morphogenetic protein receptor type-2 (Homo sapiens) (UniProt Q13873); details: Compound concentration 1000.0 nM
[7] = target: Calcium/calmodulin-dependent protein kinase type IV (Homo sapiens) (UniProt Q16566); details: Compound concentration 1000.0 nM
[8] = target: Cyclin-dependent kinase 2 (Homo sapiens) (UniProt P24941); details: Compound concentration 1000.0 nM
[9] = target: Cyclin-dependent kinase-like 1 (Homo sapiens) (UniProt Q00532); details: Compound concentration 1000.0 nM
[10] = target: Citron Rho-interacting kinase (Homo sapiens) (UniProt O14578); details: Compound concentration 1000.0 nM
[11] = target: Casein kinase I isoform gamma-2 (Homo sapiens) (UniProt P78368); details: Compound concentration 1000.0 nM
[12] = target: Death-associated protein kinase 1 (Homo sapiens) (UniProt P53355); details: Compound concentration 1000.0 nM
[13] = target: Serine/threonine-protein kinase DCLK1 (Homo sapiens) (UniProt O15075); details: Compound concentration 1000.0 nM
[14] = tested on: Epidermal growth factor receptor (Homo sapiens), P00533 [UNDEFINED MUTATION]; details: Compound concentration 1000.0 nM
[15] = target: Ephrin type-A receptor 3 (Homo sapiens) (UniProt P29320); details: Compound concentration 1000.0 nM
[16] = target: Fibroblast growth factor receptor 2 (Homo sapiens) (UniProt P21802); details: Compound concentration 1000.0 nM
[17] = tested on: Receptor-type tyrosine-protein kinase FLT3 (Homo sapiens), P36888 [UNDEFINED MUTATION]; details: Compound concentration 1000.0 nM
[18] = target: Tyrosine-protein kinase HCK (Homo sapiens) (UniProt P08631); details: Compound concentration 1000.0 nM
[19] = target: Tyrosine-protein kinase JAK1 (Homo sapiens) (UniProt P23458); details: Compound concentration 1000.0 nM
[20] = target: Tyrosine-protein kinase JAK2 (Homo sapiens) (UniProt O60674); details: Compound concentration 1000.0 nM
[21] = target: Mast/stem cell growth factor receptor Kit (Homo sapiens) (UniProt P10721); details: Compound concentration 1000.0 nM
[22] = target: Mitogen-activated protein kinase kinase kinase 1 (Homo sapiens) (UniProt Q13233); details: Compound concentration 1000.0 nM
[23] = target: MAP kinase-activated protein kinase 5 (Homo sapiens) (UniProt Q8IW41); details: Compound concentration 1000.0 nM
[24] = target: MAP/microtubule affinity-regulating kinase 3 (Homo sapiens) (UniProt P27448); details: Compound concentration 1000.0 nM
[25] = target: Mitogen-activated protein kinase kinase kinase 11 (Homo sapiens) (UniProt Q16584); details: Compound concentration 1000.0 nM
[26] = target: Serine/threonine-protein kinase mTOR (Homo sapiens) (UniProt P42345); details: Compound concentration 1000.0 nM
[27] = target: Serine/threonine-protein kinase Nek5 (Homo sapiens) (UniProt Q6P3R8); details: Compound concentration 1000.0 nM
[28] = target: Platelet-derived growth factor receptor beta (Homo sapiens) (UniProt P09619); details: Compound concentration 1000.0 nM
[29] = target: Cyclin-dependent kinase 2 homolog (Plasmodium falciparum (isolate 3D7)) (UniProt P61075); details: Compound concentration 1000.0 nM
[30] = tested on: Phosphatidylinositol 4,5-bisphosphate 3-kinase catalytic subunit alpha isoform (Homo sapiens), P42336 [H1047Y]; details: Compound concentration 1000.0 nM
[31] = tested on: Phosphatidylinositol 4,5-bisphosphate 3-kinase catalytic subunit alpha isoform (Homo sapiens), P42336 [M1043I]; details: Compound concentration 1000.0 nM
[32] = target: Phosphatidylinositol 4-kinase beta (Homo sapiens) (UniProt Q9UBF8); details: Compound concentration 1000.0 nM
[33] = target: Phosphatidylinositol 5-phosphate 4-kinase type-2 beta (Homo sapiens) (UniProt P78356); details: Compound concentration 1000.0 nM
[34] = target: Serine/threonine-protein kinase N2 (Homo sapiens) (UniProt Q16513); details: Compound concentration 1000.0 nM
[35] = target: Protein kinase C iota type (Homo sapiens) (UniProt P41743); details: Compound concentration 1000.0 nM
[36] = target: Protein-tyrosine kinase 2-beta (Homo sapiens) (UniProt Q14289); details: Compound concentration 1000.0 nM
[37] = target: Serine/threonine-protein kinase RIO3 (Homo sapiens) (UniProt O14730); details: Compound concentration 1000.0 nM
[38] = target: Receptor-interacting serine/threonine-protein kinase 1 (Homo sapiens) (UniProt Q13546); details: Compound concentration 1000.0 nM
[39] = target: Rho-associated protein kinase 1 (Homo sapiens) (UniProt Q13464); details: Compound concentration 1000.0 nM
[40] = target: Ribosomal protein S6 kinase alpha-4 (Homo sapiens) (UniProt O75676); details: Compound concentration 1000.0 nM
[41] = target: Serine/threonine-protein kinase Sgk3 (Homo sapiens) (UniProt Q96BR1); details: Compound concentration 1000.0 nM
[42] = target: Serine/threonine-protein kinase SIK1 (Homo sapiens) (UniProt P57059); details: Compound concentration 1000.0 nM
[43] = target: SNF-related serine/threonine-protein kinase (Homo sapiens) (UniProt Q9NRH2); details: Compound concentration 1000.0 nM
[44] = target: Serine/threonine-protein kinase ULK3 (Homo sapiens) (UniProt Q6PHR2); details: Compound concentration 1000.0 nM
[45] = target: Histamine H3 receptor (Homo sapiens) (UniProt Q9Y5N1); details: Compound concentration 10.0 uM

Sequence of Mast/stem cell growth factor receptor Kit (Homo sapiens) (P10721 whole entry): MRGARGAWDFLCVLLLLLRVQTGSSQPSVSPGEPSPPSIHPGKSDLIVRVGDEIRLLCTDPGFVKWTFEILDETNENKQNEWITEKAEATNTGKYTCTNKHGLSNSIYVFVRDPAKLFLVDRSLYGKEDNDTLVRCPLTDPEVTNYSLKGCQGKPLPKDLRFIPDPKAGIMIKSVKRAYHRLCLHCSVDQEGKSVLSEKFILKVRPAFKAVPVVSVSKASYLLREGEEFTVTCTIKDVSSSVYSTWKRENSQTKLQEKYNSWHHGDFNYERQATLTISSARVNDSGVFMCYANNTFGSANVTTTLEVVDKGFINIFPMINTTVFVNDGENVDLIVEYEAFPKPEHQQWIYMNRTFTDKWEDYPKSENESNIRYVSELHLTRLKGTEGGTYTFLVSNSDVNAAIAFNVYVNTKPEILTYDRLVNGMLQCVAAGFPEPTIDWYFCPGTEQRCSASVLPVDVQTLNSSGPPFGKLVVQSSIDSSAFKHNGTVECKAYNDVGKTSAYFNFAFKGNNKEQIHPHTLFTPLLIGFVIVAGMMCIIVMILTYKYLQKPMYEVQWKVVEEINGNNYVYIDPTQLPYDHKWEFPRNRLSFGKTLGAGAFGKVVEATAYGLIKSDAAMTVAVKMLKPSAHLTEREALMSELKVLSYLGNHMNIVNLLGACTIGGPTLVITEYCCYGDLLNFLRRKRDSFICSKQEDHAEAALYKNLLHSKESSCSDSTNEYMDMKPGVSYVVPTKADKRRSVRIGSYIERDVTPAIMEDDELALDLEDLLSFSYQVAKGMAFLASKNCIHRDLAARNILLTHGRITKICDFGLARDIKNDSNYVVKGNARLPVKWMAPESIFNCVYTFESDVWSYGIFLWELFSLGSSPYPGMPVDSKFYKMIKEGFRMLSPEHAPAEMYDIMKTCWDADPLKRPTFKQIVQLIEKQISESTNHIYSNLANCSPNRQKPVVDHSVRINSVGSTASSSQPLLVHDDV
Sequence of Ribosomal protein S6 kinase alpha-4 (Homo sapiens) (O75676 whole entry, looked up): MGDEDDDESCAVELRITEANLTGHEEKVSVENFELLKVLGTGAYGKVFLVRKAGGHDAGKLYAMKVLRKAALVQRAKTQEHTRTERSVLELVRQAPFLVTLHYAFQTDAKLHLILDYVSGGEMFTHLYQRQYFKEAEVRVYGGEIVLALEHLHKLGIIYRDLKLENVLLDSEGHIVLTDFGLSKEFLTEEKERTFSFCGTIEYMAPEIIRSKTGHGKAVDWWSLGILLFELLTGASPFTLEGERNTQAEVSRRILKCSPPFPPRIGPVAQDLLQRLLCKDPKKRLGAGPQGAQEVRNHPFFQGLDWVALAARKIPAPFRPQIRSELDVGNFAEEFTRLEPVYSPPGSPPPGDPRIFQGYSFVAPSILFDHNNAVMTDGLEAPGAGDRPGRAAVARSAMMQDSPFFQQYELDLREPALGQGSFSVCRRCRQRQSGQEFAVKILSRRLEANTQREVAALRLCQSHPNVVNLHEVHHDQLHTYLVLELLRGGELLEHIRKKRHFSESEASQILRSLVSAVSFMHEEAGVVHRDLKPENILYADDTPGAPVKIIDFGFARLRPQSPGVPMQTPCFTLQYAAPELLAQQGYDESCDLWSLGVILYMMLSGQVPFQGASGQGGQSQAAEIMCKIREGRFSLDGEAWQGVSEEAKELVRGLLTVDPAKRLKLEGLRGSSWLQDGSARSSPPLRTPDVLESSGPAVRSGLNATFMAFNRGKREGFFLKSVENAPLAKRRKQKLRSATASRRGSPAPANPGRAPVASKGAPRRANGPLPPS
Sequence of MAP/microtubule affinity-regulating kinase 3 (Homo sapiens) (P27448 whole entry, looked up): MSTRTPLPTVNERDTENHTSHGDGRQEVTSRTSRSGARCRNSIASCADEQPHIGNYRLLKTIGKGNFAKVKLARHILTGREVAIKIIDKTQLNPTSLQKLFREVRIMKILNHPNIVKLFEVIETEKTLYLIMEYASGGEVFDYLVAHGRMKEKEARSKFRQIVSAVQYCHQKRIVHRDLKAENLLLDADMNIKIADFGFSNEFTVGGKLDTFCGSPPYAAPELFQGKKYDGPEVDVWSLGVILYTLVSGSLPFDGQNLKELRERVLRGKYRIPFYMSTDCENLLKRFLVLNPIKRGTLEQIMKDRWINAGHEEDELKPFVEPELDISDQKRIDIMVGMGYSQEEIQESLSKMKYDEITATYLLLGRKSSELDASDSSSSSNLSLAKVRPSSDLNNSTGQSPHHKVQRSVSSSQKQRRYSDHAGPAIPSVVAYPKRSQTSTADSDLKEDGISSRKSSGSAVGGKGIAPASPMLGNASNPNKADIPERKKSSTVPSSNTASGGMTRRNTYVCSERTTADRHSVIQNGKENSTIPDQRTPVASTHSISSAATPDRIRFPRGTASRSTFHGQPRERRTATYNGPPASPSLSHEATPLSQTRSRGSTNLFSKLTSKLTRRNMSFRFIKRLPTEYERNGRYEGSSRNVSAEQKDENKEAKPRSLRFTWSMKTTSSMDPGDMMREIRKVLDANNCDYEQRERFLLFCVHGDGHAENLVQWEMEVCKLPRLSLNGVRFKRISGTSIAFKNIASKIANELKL
Sequence of Serine/threonine-protein kinase RIO3 (Homo sapiens) (O14730 whole entry): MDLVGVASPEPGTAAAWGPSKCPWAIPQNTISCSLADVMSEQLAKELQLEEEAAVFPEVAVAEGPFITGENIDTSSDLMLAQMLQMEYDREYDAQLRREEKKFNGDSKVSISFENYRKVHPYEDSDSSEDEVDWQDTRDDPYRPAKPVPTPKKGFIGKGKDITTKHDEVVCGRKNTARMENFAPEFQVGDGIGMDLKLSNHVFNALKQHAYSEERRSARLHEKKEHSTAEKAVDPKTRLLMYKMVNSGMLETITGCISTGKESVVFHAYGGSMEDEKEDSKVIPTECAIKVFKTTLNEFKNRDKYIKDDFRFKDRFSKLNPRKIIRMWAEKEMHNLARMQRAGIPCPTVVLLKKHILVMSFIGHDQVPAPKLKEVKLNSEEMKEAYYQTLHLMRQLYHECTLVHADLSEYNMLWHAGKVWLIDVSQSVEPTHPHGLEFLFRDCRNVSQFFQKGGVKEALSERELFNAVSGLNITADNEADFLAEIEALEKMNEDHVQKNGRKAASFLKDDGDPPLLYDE
Sequence of Mitogen-activated protein kinase kinase kinase 1 (Homo sapiens) (Q13233 whole entry): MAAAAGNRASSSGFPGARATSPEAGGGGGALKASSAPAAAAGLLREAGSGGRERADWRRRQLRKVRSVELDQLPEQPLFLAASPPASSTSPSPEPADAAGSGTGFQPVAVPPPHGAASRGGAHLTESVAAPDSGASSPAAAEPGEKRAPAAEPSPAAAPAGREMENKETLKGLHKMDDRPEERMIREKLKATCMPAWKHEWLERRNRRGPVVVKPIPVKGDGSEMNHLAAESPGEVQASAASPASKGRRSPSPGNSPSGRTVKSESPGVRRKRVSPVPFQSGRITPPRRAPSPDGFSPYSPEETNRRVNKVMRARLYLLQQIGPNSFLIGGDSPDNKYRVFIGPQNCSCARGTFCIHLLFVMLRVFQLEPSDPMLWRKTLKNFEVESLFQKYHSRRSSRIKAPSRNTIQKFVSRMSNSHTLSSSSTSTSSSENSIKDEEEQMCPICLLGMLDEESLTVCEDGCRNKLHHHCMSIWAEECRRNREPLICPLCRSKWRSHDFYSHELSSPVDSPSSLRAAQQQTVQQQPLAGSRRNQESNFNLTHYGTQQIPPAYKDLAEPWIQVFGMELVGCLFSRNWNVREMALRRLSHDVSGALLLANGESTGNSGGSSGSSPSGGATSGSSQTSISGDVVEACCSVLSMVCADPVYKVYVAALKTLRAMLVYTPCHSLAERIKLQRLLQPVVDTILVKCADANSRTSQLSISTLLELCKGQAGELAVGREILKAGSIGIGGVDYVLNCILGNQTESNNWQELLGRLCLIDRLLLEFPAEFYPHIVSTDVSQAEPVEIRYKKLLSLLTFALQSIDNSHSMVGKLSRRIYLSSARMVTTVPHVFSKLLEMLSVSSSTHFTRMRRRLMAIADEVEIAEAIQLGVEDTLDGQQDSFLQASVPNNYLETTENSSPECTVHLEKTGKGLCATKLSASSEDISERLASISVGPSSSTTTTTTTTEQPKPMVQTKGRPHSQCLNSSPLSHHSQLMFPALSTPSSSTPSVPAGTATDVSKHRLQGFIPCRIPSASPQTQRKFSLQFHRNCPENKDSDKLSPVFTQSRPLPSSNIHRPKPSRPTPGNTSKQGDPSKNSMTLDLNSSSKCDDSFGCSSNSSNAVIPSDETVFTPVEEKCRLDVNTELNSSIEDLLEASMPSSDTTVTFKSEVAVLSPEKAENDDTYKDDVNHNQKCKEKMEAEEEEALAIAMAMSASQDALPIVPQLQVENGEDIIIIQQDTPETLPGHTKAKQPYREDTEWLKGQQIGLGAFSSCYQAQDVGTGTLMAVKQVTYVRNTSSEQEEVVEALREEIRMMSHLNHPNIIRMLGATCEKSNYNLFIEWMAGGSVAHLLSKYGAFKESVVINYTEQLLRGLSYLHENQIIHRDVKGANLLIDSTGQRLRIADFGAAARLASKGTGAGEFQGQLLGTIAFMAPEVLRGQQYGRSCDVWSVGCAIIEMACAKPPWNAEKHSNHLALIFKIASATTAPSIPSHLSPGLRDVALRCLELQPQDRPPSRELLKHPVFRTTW
Sequence of Phosphatidylinositol 5-phosphate 4-kinase type-2 beta (Homo sapiens) (P78356 whole entry): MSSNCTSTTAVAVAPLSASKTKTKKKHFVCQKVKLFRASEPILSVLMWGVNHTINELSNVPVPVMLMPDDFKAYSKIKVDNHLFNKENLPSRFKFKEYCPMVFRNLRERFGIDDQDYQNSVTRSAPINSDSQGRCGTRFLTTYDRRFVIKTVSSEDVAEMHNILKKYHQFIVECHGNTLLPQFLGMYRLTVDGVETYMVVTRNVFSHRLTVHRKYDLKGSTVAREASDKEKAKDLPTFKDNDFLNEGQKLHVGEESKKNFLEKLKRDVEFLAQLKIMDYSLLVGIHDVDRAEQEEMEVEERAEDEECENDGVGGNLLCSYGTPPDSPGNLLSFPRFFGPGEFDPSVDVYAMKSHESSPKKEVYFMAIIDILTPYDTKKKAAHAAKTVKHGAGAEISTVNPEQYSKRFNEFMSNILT

O=C(O)[C@H]1[C@H](Cn2nnc3ccccc3c2=O)CC[C@@H]1C(=O)c1ccc(OCCC2CCOCC2)cc1 [BAY-7598]
inactive: residual activity [1] 100% | residual activity [2] 79% | residual activity [3] 99% | residual activity [4] 74% | residual activity [5] 86% | residual activity [6] 100% | residual activity [7] 78% | residual activity [8] 100% | residual activity [9] 99% | residual activity [10] 77% | residual activity [11] 87% | residual activity [12] 89% | residual activity [13] 73% | residual activity [14] 65% | residual activity [15] 88% | residual activity [16] 100% | residual activity [17] 83% | residual activity [18] 70% | residual activity [19] 100% | residual activity [20] 75% | residual activity [21] 65% | residual activity [22] 100% | residual activity [23] 99% | residual activity [24] 100% | residual activity [25] 92% | residual activity [26] 100% | residual activity [27] 97% | residual activity [28] 88% | residual activity [29] 91% | residual activity [30] 88% | residual activity [31] 100% | residual activity [32] 93% | residual activity [33] 84% | residual activity [34] 76% | residual activity [35] 66% | residual activity [36] 75% | residual activity [37] 79% | residual activity [38] 84% | residual activity [39] 87% | residual activity [40] 100% | residual activity [41] 100% | residual activity [42] 100% | residual activity [43] 95% | residual activity [44] 85% | inhibition [45] -2.95%

O=C(O)[C@@H]1[C@@H](Cn2nnc3ccccc3c2=O)CC[C@H]1C(=O)c1ccc(OCCC2CCOCC2)cc1 [BAY-694]
inactive: residual activity [1] 84% | residual activity [2] 100% | residual activity [3] 92% | residual activity [4] 100% | residual activity [5] 100% | residual activity [6] 98% | residual activity [7] 75% | residual activity [8] 100% | residual activity [9] 100% | residual activity [10] 92% | residual activity [11] 100% | residual activity [12] 100% | residual activity [13] 100% | residual activity [14] 58% | residual activity [15] 100% | residual activity [16] 100% | residual activity [17] 100% | residual activity [18] 100% | residual activity [19] 100% | residual activity [20] 74% | residual activity [21] 100% | residual activity [22] 100% | residual activity [23] 76% | residual activity [24] 100% | residual activity [25] 92% | residual activity [26] 96% | residual activity [27] 100% | residual activity [28] 100% | residual activity [29] 100% | residual activity [30] 94% | residual activity [31] 100% | residual activity [32] 83% | residual activity [33] 81% | residual activity [34] 100% | residual activity [35] 100% | residual activity [36] 100% | residual activity [37] 100% | residual activity [38] 100% | residual activity [39] 84% | residual activity [40] 100% | residual activity [41] 100% | residual activity [42] 91% | residual activity [43] 100% | residual activity [44] 100% | inhibition [45] 4.06%
